The source of these data is patent US20090170872A1, “Compounds and Their Pharmaceutical Use” (Orchid Research Laboratories Limited, priority 2005, published 2009).

One series has as its system TNF-α. Nature of the series: TNF-α production in LPS-stimulated human whole blood (ELISA). As to conditions: LPS 4 hours, read-out: % TNF-α Inhibitory Activity in (hPBMC). Type of series: cell-based. As for the experimental part: This assay determines the effect of the test compounds on the production of TNF-α in human whole blood. TNF-α assay is carried out as described by Armin Hatzelmann and Christian Schudt (J Pharm Exp Ther 297, 261, 2001). Compounds are tested for their ability to inhibit the activity of TNF-α in human whole blood. The test compounds are pre-incubated for 15 minutes at 37° C. and then stimulated with Lipopolysaccharide (Salmonella abortus equi, 1 µg/ml) for 4 hours at 37° C. in 5% CO2. The levels of TNF-α are estimated using Enzyme linked Immunosorbent assay performed in a 96 well format as per the procedure of the manufacturer (Cayman Chemical, Ann Arbor, USA).
A general note: An ELISA detects its analyte on a solid surface through an enzyme-linked reagent.

In the next series the test system is IL-6. Kind of series: IL-6 production in LPS-stimulated human whole blood (ELISA). Type of series: cell-based. To be noted: LPS 4 hours, read-out: % IL-6 Inhibitory Activity (hPBMC). As for the experimental part: This assay determines the effect of test compounds on the production of IL-6 from human whole blood. Compounds are tested for their ability to downregulate the production of IL-6 in activated whole blood. The test compounds are pre-incubated for 15 minutes at 37° C. and then stimulated with Lipopolysaccharide (Salmonella abortus equi, 1 µg/ml) for 4 hours at 37° C. in 5% CO2. The levels of IL-6 are estimated using Enzyme linked Immunosorbent assay performed in a 96 well format as per the procedure of the manufacturer. (Cayman Chemical, Ann Arbor, USA).

As a reminder, the melting point is the temperature, or range, at which the solid turns liquid. `COc1ccc(C(=O)O/N=C2/c3c(n(C)c4ccccc34)CCC2Cn2ccnc2C)cc1` (stereo not drawn) [Example 35, (4E)-9-methyl-3-[(2-methyl-1H-imidazol-1-yl)methyl]-1,2,3,9-tetrahydro-4H-carbazol-4-one O-4-methoxybenzoyloxime] registered a melting point of 200 to 203 °C.
On to `Cc1nccn1CC1CCc2c(c3ccccc3n2C)/C1=N/OCC(F)(F)F` (stereo not drawn) [Example 4, (4E)-9-methyl-3-[(2-methyl-1H-imidazol-1-yl)methyl]-1,2,3,9-tetrahydro-4H-carbazol-4-one O-2,2,2-trifluoroethyloxime], for which, in the series on TNF-α, the inhibition at 1 µM is 19.8% and the inhibition at 10 µM turned out to be 26.1%.
In the case of `Cc1nccn1CC1CCc2c(c3ccccc3n2C)/C1=N/OC(=O)c1ccnc(Cl)c1` (stereo not drawn) [Example 27, (4E)-9-methyl-3-[(2-methyl-1H-imidazol-1-yl)methyl]-1,2,3,9-tetrahydro-4H-carbazol-4-one O-2-chloropyridinoyloxime], the melting point lay within 172 to 174 °C. In the series on TNF-α, the inhibition at 1 µM was 3.51% and the inhibition at 10 µM came out at 9.77%.
As for `Cc1nccn1CC1CCc2c(c3ccccc3n2C)/C1=N/OC(=O)c1ccc([N+](=O)[O-])o1` (stereo not drawn) [Example 47, (4E)-9-methyl-3-[(2-methyl-1H-imidazol-1-yl)methyl]-1,2,3,9-tetrahydro-4H-carbazol-4-one O-5-nitro-2-furanoyloxime], the melting point lay within 186 to 190 °C. In the series on TNF-α, the inhibition at 1 µM turned out to be 18% and the inhibition at 10 µM worked out at 26.5%.
As for `Cc1ccsc1C(=O)O/N=C1/c2c(n(C)c3ccccc23)CCC1Cn1ccnc1C` (stereo not drawn) [Example 49, (4E)-9-methyl-3-[(2-methyl-1H-imidazol-1-yl)methyl]-1,2,3,9-tetrahydro-4H-carbazol-4-one O-3-methyl-2-thiophenoyloxime], the melting point lay in the range of 177 to 180 °C.
Consider `Cc1nccn1CC1CCc2c(c3ccccc3n2C)/C1=N/OC(=O)C(F)(F)F` (stereo not drawn) [Example 26, (4E)-9-methyl-3-[(2-methyl-1H-imidazol-1-yl)methyl]-1,2,3,9-tetrahydro-4H-carbazol-4-one O-trifluoroacetyloxime], for which the melting point was in the range of 148 to 150 °C. In the series with TNF-α, the inhibition at 1 µM is 20.8% and the inhibition at 10 µM is 2.67%.
As for `Cc1nccn1CC1CCc2c(c3ccccc3n2C)/C1=N/Oc1ccc(C(F)(F)F)c(Cl)n1` (stereo not drawn) [Example 22, (4E)-9-methyl-3-[(2-methyl-1H-imidazol-1-yl)methyl]-1,2,3,9-tetrahydro-4H-carbazol-4-one O-(-chloro-5-trifluoromethyl-pyridin-2-yl)oxime], in the series with TNF-α, the inhibition at 1 µM is 53.1% and the inhibition at 10 µM amounted to 48%.
`Cc1ccc(C(=O)O/N=C2/c3c(n(C)c4ccccc34)CCC2Cn2ccnc2C)cc1` (stereo not drawn) [Example 36, (4E)-9-methyl-3-[(2-methyl-1H-imidazol-1-yl)methyl]-1,2,3,9-tetrahydro-4H-carbazol-4-one O-4-methylbenzoyloxime]: the melting point lay within 207 to 212 °C. Also, in the series with TNF-α, the inhibition at 1 µM was determined as 8.81% and the inhibition at 10 µM was determined as 18.8%.
Regarding `CC(=O)O/N=C1/c2c(n(C)c3ccccc23)CCC1Cn1ccnc1C` (stereo not drawn) [Example 25, (4E)-9-methyl-3-[(2-methyl-1H-imidazol-1-yl)methyl]-1,2,3,9-tetrahydro-4H-carbazol-4-one O-acetyloxime], in the series on IL-6, the inhibition at 1 µM was found to be 22.4% and the inhibition at 10 µM is 12.5%.
Take `Cc1nccn1CC1CCc2c(c3ccccc3n2C)/C1=N/OCc1ccccc1` (stereo not drawn) [Example 2, (4E)-9-methyl-3-[(2-methyl-1H-imidazol-1-yl)methyl]-1,2,3,9-tetrahydro-4H-carbazol-4-one O-benzyloxime]: in the series on IL-6, the inhibition at 1 µM came out at 17.2% and the inhibition at 10 µM was 52.7%. Moreover, in the series with TNF-α, the inhibition at 1 µM worked out at 6.87% and the inhibition at 10 µM is 54.3%.
`Cc1nccn1CC1CCc2c(c3ccccc3n2C)/C1=N/OC(=O)c1ccc(Cl)s1` (stereo not drawn) [Example 56, (4E)-9-methyl-3-[(2-methyl-1H-imidazol-1-yl)methyl]-1,2,3,9-tetrahydro-4H-carbazol-4-one O-5-chloro-2-thiophenoyloxime] showed a melting point of 140 to 144 °C. In the series with TNF-α, the inhibition at 1 µM was 26.5% and the inhibition at 10 µM came out at 54.3%.
Regarding `Cc1nccn1CC1CCc2c(c3ccccc3n2C)/C1=N/OC(=O)c1ccccc1` (stereo not drawn) [Example 30, (4E)-9-methyl-3-[(2-methyl-1H-imidazol-1-yl)methyl]-1,2,3,9-tetrahydro-4H-carbazol-4-one O-benzoyloxime], the melting point was 179 to 185 °C.
In the case of `Cc1nccn1CC1CCc2c(c3ccccc3n2C)/C1=N/OCc1ccc([N+](=O)[O-])cc1` (stereo not drawn) [Example 15, (4E)-9-methyl-3-[(2-methyl-1H-imidazol-1-yl)methyl]-1,2,3,9-tetrahydro-4H-carbazol-4-one O-(4-nitrobenzyl)oxime], in the series on TNF-α, the inhibition at 1 µM was determined as 48.1% and the inhibition at 10 µM was found to be 41.2%.
`Cc1nccn1CC1CCc2c(c3ccccc3n2C)/C1=N/OC(=O)c1ccoc1` (stereo not drawn) [Example 63, (4E)-9-methyl-3-[(2-methyl-1H-imidazol-1-yl)methyl]-1,2,3,9-tetrahydro-4H-carbazol-4-one [(furan-3-yl)carbonyl]oxime] gave a melting point of 158 to 164 °C.
Molecule `Cc1cc(C(=O)O/N=C2/c3c(n(C)c4ccccc34)CCC2Cn2ccnc2C)no1` (stereo not drawn) [Example 50, (4E)-9-methyl-3-[(2-methyl-1H-imidazol-1-yl)methyl]-1,2,3,9-tetrahydro-4H-carbazol-4-one O-5-methyl-3-isoxazoloyloxime] returned a melting point of 154 to 157 °C.
For the molecule `COc1ccc(CO/N=C2/c3c(n(C)c4ccccc34)CCC2Cn2ccnc2C)cc1` (stereo not drawn) [Example 5, (4E)-9-methyl-3-[(2-methyl-1H-imidazol-1-yl)methyl]-1,2,3,9-tetrahydro-4H-carbazol-4-one O-(4-methoxybenzyl)oxime], in the series with TNF-α, the inhibition at 1 µM is 18.4% and the inhibition at 10 µM amounted to 52.4%.
Consider `Cc1nccn1CC1CCc2c(c3ccccc3n2C)C1NO` (stereo not drawn) [Example 64, 4-(hydroxyamino)-9-methyl-3-[(2-methyl-1H-imidazol-1-yl)methyl]-2,3,4,9-tetrahydro-1H-carbazole], for which the melting point lay in the range of 140 to 144 °C.
In the case of `Cc1nccn1CC1CCc2c(c3ccccc3n2C)/C1=N/OCc1ccncc1` (stereo not drawn) [Example 11, (4E)-9-methyl-3-[(2-methyl-1H-imidazol-1-yl)methyl]-1,2,3,9-tetrahydro-4H-carbazol-4-one O-(pyridin-4-ylmethyl)oxime], in the series on TNF-α, the inhibition at 1 µM was 11.7% and the inhibition at 10 µM was found to be 47.5%.
In the same order, the values of `Cc1nccn1CC1CCc2c(c3ccccc3n2C)/C1=N/OCc1cccnc1` (stereo not drawn) [Example 10, (4E)-9-methyl-3-[(2-methyl-1H-imidazol-1-yl)methyl]-1,2,3,9-tetrahydro-4H-carbazol-4-one O-(pyidin-3-ylmethyl)oxime] are 19.9% and 50.5%.
Take `Cc1nccn1CC1CCc2c(c3ccccc3n2C)/C1=N/OC(=O)c1ccc(C(F)(F)F)cc1` (stereo not drawn) [Example 34]: the melting point is 200 to 203 °C.
On the same count and under the same terms, the value for `Cc1nccn1CC1CCc2c(c3ccccc3n2C)/C1=N/O` (stereo not drawn) [Example 1, (4E)-9-methyl-3-[(2-methyl-1H-imidazol-1-yl)methyl]-1,2,3,9-tetrahydro-4H-carbazol-4-one oxime] was 231 to 233 °C.
Take `Cc1nccn1CC1CCc2c(c3ccccc3n2C)/C1=N/OC(=O)c1ccc(Br)o1` (stereo not drawn) [Example 45, (4E)-9-methyl-3-[(2-methyl-1H-imidazol-1-yl)methyl]-1,2,3,9-tetrahydro-4H-carbazol-4-one O-5-bromo-2-furanoyloxime]: in the series on TNF-α, the inhibition at 1 µM was 12.3% and the inhibition at 10 µM amounted to 32.1%.
Turning to `Cc1nccn1CC1CCc2c(c3ccccc3n2C)/C1=N/OC(=O)c1ccsc1` (stereo not drawn) [Example 53], the melting point was in the range of 171 to 175 °C.
The same measure, in the same setting: the value for `Cc1nccn1CC1CCc2c(c3ccccc3n2C)/C1=N/OC(=O)c1ccccc1F` (stereo not drawn) [Example 33, (4E)-9-methyl-3-[(2-methyl-1H-imidazol-1-yl)methyl]-1,2,3,9-tetrahydro-4H-carbazol-4-one O-2-fluorobenzoyloxime] was 172 to 175 °C.
For `Cc1ccoc1C(=O)O/N=C1/c2c(n(C)c3ccccc23)CCC1Cn1ccnc1C` (stereo not drawn) [Example 48, (4E)-9-methyl-3-[(2-methyl-1H-imidazol-1-yl)methyl]-1,2,3,9-tetrahydro-4H-carbazol-4-one O-3-methyl-2-furanoyloxime], the melting point lay in the range of 165 to 170 °C. Moreover, in the series with TNF-α, the inhibition at 1 µM was 20.7% and the inhibition at 10 µM amounted to 22.6%.
For the molecule `Cc1nccn1CC1CCc2c(c3ccccc3n2C)/C1=N/OC(=O)c1ccc(Cl)cc1` (stereo not drawn) [Example 31, (4E)-9-methyl-3-[(2-methyl-1H-imidazol-1-yl)methyl]-1,2,3,9-tetrahydro-4H-carbazol-4-one O-4-chloro-benzoyloxime], the melting point was in the range of 206 to 212 °C. For the same molecule, in the series on TNF-α, the inhibition at 1 µM came out at 10.8% and the inhibition at 10 µM is 28.5%.
